The record followed here is ChEMBL document CHEMBL4312009, “Multigram scale synthesis of polycyclic lactones and evaluation of antitumor and other biological properties” (Eur J Med Chem, 2020).

Assay [1] concerns GTPase KRas (Homo sapiens), P01116 [UNDEFINED MUTATION]. The experiment in a line: Inhibition of KRas mutant in human SW480 cells assessed as cell viability by measuring ATP at 2 uM relative to control. The format is cell-based.
Assay [2] shares this test system. The experiment in a line: Inhibition of KRas mutant in human SW480 cells assessed as cell viability by measuring ATP at 20 uM relative to control. The format is cell-based.
For assay [3] the test system is unchanged. The experiment in a line: Inhibition of KRas mutant in human DLD1 cells assessed as cell viability by measuring ATP at 0.2 uM relative to control. In kind it is cell-based.
Assay [4] has the same test system. The experiment in a line: Inhibition of KRas mutant in human DLD1 cells assessed as cell viability by measuring ATP at 2 uM relative to control. In kind it is cell-based.
Assay [5] has the same test system. The experiment in a line: Inhibition of KRas mutant in human DLD1 cells assessed as cell viability by measuring ATP at 20 uM relative to control. The format is cell-based.
The test system is the same in assay [6]. The assay can be described thus: Inhibition of KRas mutant in human HCT116 cells assessed as cell viability by measuring ATP at 0.2 uM relative to control. The format is cell-based.
Assay [7] has the same test system. The experiment in a line: Inhibition of KRas mutant in human HCT116 cells assessed as cell viability by measuring ATP at 2 uM relative to control. The format is cell-based.
The test system is the same in assay [8]. The assay can be described thus: Inhibition of KRas mutant in human HCT116 cells assessed as cell viability by measuring ATP at 20 uM relative to control. In kind it is cell-based.
Assay [9] shares this test system. The experiment in a line: Inhibition of KRas mutant in human HCT116 cells […] assessed as cell viability by measuring ATP at 0.2 uM relative to control. In kind it is cell-based.
For assay [10] the test system is unchanged. The assay can be described thus: Inhibition of KRas mutant in human HCT116 cells […] assessed as cell viability by measuring ATP at 2 uM relative to control. The format is cell-based.
Assay [11] shares this test system. The experiment in a line: Inhibition of KRas mutant in human HCT116 cells […] assessed as cell viability by measuring ATP at 20 uM relative to control. The format is cell-based.
The target in assay [12] is Microtubule-associated protein tau (Homo sapiens) (UniProt P10636). The assay can be described thus: Inhibition of human Tau at 40 uM relative to control.
Microtubule-associated protein tau (Homo sapiens), sequence (P10636 whole entry): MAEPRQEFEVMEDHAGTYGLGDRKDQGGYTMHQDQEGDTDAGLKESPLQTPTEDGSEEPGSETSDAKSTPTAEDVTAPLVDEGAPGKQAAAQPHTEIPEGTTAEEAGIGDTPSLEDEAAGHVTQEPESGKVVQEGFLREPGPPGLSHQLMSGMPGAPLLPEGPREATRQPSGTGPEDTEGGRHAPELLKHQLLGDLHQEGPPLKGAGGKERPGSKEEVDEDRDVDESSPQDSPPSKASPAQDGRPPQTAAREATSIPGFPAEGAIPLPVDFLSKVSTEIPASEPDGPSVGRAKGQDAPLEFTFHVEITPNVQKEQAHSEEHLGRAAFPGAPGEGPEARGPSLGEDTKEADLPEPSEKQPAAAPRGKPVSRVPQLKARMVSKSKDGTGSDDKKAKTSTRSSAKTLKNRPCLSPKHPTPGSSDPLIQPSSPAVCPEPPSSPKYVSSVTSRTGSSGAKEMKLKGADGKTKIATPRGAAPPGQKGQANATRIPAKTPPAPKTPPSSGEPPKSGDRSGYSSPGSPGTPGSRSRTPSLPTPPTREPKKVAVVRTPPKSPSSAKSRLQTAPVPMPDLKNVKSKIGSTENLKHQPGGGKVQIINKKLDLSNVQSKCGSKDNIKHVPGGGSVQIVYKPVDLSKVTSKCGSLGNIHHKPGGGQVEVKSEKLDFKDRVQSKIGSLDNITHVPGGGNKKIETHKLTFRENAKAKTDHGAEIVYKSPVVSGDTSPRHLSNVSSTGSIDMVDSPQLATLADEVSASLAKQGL
For assay [13], the target named is T1, Angiopoietin-like protein 8 (Homo sapiens) (UniProt Q6UXH0).
T1 sequence (whole entry): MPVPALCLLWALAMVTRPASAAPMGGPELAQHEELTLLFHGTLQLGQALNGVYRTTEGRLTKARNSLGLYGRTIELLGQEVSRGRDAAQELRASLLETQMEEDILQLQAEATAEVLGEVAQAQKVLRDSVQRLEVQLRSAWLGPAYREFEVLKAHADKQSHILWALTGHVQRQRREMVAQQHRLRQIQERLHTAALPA
The experiment in a line: Inhibition of human Angptl8 at 40 uM relative to control.

Assay [14] deals with Apolipoprotein C-III (Homo sapiens) (UniProt P02656). The assay can be described thus: Inhibition of human APOC3 at 40 uM relative to control.
Apolipoprotein C-III (Homo sapiens), sequence (P02656 whole entry): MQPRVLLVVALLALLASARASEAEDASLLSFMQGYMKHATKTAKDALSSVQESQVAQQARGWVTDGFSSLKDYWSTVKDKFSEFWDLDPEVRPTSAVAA
Assay [15] concerns the target Proprotein convertase subtilisin/kexin type 9 (Homo sapiens) (UniProt Q8NBP7). The assay can be described thus: Inhibition of human PCSK9 at 40 uM relative to control.
Assay [16] concerns GTPase KRas (Homo sapiens), P01116 [UNDEFINED MUTATION]. The experiment in a line: Inhibition of KRas mutant in human SW480 cells assessed as cell viability by measuring ATP at 0.2 uM relative to control. The format is cell-based.
Assay [17] deals with HeLa. The assay can be described thus: Cell cycle arrest in human HeLa cells assessed as effect on 2N stage incubated for 21 hrs by propidium iodide based flow cytometry. In kind it is functional. In general terms: A flow cytometer gives signals particle by particle.
The test system of assay [18] is HeLa. The experiment in a line: Cell cycle arrest in human HeLa cells assessed as effect on 4N stage incubated for 21 hrs by propidium iodide based flow cytometry. The format is functional.
The subject of assay [19] is HeLa. The assay can be described thus: Cell cycle arrest in human HeLa cells assessed as effect on mitotic index incubated for 21 hrs by propidium iodide based flow cytometry. The format is functional.
Assay [20] relates to HeLa. The assay can be described thus: Cell cycle arrest in human HeLa cells incubated for 21 hrs by propidium iodide based flow cytometry. The format is functional.
In assay [21] the test system is HeLa. The experiment in a line: Cell cycle arrest in human HeLa cells assessed as effect on G1 phase incubated for 21 hrs by propidium iodide based flow cytometry. In kind it is functional.
For assay [22], the system named is HeLa. The assay can be described thus: Cell cycle arrest in human HeLa cells assessed as effect on S phase incubated for 21 hrs by propidium iodide based flow cytometry. In kind it is functional.
Assay [23] in a line: Activation of wnt pathway in mouse C2C12 cells assessed as increase in alkaline phosphatase activity. The format is cell-based.
The nature of assay [24]: Activation of wnt pathway in mouse C2C12 cells assessed as increase in beta-catenin activity. The format is cell-based.
The target in assay [25] is Sodium channel protein type 9 subunit alpha (Homo sapiens) (UniProt Q15858). The experiment in a line: Inhibition of human Nav1.7 at 40 uM relative to control.
Sodium channel protein type 9 subunit alpha (Homo sapiens), sequence (Q15858 whole entry, looked up): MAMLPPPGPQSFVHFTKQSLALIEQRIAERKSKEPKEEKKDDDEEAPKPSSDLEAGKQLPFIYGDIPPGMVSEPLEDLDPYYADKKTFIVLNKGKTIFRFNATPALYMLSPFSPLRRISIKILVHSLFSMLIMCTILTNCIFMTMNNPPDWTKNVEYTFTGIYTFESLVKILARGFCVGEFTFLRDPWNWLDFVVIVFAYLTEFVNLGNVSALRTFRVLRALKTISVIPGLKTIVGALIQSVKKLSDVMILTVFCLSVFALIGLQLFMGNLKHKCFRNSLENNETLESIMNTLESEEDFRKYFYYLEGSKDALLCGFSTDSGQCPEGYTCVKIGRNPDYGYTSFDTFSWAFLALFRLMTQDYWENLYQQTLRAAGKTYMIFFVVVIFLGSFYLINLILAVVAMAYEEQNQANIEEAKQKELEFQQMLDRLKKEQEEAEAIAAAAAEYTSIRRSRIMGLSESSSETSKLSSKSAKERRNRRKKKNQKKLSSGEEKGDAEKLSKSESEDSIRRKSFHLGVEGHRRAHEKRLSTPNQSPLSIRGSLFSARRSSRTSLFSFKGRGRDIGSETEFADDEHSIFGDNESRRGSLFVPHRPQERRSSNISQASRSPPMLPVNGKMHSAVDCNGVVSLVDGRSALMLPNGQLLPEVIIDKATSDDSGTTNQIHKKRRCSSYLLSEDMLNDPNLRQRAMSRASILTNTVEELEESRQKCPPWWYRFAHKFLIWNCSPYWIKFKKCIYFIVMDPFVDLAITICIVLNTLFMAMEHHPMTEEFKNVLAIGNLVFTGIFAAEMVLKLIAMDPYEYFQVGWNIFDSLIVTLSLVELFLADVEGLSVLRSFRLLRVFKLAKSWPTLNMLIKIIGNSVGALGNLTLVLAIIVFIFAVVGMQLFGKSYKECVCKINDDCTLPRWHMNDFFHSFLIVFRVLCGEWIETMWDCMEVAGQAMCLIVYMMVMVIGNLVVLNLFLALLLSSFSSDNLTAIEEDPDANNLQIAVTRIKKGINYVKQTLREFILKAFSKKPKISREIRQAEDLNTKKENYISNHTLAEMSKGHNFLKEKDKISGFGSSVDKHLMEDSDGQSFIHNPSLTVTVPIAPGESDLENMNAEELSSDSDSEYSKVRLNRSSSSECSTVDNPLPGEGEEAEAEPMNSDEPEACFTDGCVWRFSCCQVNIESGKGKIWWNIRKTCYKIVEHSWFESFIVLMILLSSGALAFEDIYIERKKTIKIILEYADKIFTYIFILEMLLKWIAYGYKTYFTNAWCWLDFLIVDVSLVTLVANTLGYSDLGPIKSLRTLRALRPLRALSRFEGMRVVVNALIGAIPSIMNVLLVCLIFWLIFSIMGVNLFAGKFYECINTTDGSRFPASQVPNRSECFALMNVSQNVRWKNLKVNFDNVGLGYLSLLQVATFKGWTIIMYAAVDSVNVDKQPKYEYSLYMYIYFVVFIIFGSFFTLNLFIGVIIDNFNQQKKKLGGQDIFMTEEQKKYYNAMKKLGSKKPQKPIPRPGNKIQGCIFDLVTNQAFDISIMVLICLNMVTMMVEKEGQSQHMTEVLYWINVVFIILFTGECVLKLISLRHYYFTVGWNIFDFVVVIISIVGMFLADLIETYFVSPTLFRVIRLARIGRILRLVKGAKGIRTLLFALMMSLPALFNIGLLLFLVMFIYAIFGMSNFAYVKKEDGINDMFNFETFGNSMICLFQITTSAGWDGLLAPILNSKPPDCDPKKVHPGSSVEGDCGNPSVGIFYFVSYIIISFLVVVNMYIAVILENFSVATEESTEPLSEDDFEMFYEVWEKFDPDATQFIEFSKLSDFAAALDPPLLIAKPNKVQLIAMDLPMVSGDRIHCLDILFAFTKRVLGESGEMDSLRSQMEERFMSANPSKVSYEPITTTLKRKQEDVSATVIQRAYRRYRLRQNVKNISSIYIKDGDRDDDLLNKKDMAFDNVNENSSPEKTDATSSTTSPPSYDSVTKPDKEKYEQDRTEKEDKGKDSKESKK
For assay [26], the system named is GTPase KRas (Homo sapiens), P01116 [UNDEFINED MUTATION]. The experiment in a line: Inhibition of KRas mutant in human SW480 cells assessed as cell viability by measuring ATP. The format is cell-based.
The test system is the same in assay [27]. The assay can be described thus: Inhibition of KRas mutant in human DLD1 cells assessed as cell viability by measuring ATP. The format is cell-based.
For assay [28] the test system is unchanged. The assay can be described thus: Inhibition of KRas mutant in human HCT116 cells assessed as cell viability by measuring ATP. The format is cell-based.
The test system is the same in assay [29]. The experiment in a line: Inhibition of KRas mutant in human HCT116 cells […] assessed as cell viability by measuring ATP. The format is cell-based.

GTPase KRas (Homo sapiens), P01116 [UNDEFINED MUTATION], sequence (P01116 whole entry, looked up, change not shown): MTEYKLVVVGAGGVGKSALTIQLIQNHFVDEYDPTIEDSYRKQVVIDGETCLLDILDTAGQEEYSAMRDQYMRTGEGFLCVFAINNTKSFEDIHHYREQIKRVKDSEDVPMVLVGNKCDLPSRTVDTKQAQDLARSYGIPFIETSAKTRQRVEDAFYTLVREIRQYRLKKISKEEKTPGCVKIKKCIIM
Proprotein convertase subtilisin/kexin type 9 (Homo sapiens), sequence (Q8NBP7 31-152 limits assumed): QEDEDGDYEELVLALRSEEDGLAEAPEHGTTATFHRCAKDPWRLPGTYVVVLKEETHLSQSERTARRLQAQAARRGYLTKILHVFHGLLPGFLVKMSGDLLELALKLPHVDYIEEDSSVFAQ
Proprotein convertase subtilisin/kexin type 9 (Homo sapiens), sequence (Q8NBP7 153-692 limits assumed): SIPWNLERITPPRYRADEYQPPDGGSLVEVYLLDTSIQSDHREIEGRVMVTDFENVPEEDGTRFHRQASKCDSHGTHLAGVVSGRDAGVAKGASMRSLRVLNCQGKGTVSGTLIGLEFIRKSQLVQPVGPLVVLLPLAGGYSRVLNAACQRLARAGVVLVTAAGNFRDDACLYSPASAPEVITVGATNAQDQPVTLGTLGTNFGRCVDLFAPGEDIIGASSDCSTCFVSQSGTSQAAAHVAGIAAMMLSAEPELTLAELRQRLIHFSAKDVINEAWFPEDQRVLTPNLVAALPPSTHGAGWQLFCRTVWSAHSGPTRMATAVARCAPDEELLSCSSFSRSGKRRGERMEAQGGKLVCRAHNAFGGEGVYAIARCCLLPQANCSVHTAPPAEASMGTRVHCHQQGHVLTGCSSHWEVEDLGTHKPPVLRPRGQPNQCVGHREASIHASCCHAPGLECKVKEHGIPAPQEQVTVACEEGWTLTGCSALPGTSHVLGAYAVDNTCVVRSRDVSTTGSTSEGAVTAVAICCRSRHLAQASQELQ

A word on the inhibition: it is the relative decrease from the control value, in per cent. Regarding `Cc1c2c(c(CCCCBr)c3c1C(=O)OC3)Oc1ccccc1O2`, the inhibition in [1] stood at 4.4%; in assay [2] it was 55%; in [3], 0.4%; in assay [4], 0.4%; in [5], 20%; in [6], 2%. Moreover, the inhibition is 9.5% in assay [7]; 108% in assay [8]; 12% in [9]; 20% in assay [10]; 28% in assay [11]; 35% in [12]. The inhibition in assay [13] came to 37%; in [14], 17%; in assay [15], 40%.

The term IC50 denotes the midpoint of a concentration-inhibition curve. A word on the EC50: it is the concentration at which the effect is half-maximal. As to `CCCCCCc1c2c(c(C)c3c1C(=O)SC3)Oc1ccccc1O2`, the inhibition is 13% in assay [16]; 9% in [1]; 22% in assay [2]; -9% in [3]; 7% in assay [4]; 90% in [5]. The inhibition in assay [7] is 10%; in assay [8], 40%; in assay [10] it was -4%; in [11], 18%; in [12], 20%; in assay [13] it was 31%. Also, the inhibition is 21% in assay [14], -10% in assay [25] and 30% in assay [15]. The IC50 in the assay with HeLa [17], in the assay with HeLa [20] and in the assay with HeLa [22] was over 10 µM each time. Also, the EC50 (with HeLa [18]; with HeLa [19]; in the assay on HeLa [21]; in [23]; in assay [24]) was over 10 µM each time.

For the compound `CCCCCCc1c2c(c(C)c3c1Oc1ccccc1O3)C(=O)SC2`, the inhibition is 10% in [16]; 10% in assay [1]; 21% in [2]; -10% in [3]; 6% in assay [4]; 14% in [5]. In addition, the inhibition in [6] is -10%; in assay [7], 2.9%; in assay [8], 13%; in [10], -5.6%; in assay [11], 3.4%; in assay [12], 30%. Besides, the inhibition in assay [13] was 27%; in [14], 7%; in assay [25], -2%; in assay [15], -4%.

Take `CCCCCc1c2c(c(C)c3c1C(=O)OC3)Oc1ccccc1O2`: the inhibition worked out at 20% in assay [16]; 64% in assay [1]; 86% in assay [2]; 60% in assay [3]; 63% in assay [4]; 120% in [5]. For the same compound, the inhibition in [6] is 20%; in assay [7], 62%; in [8] it was 89%; in [9], 5%; in [10], 59%; in assay [11], 66%. The inhibition entry is “Dose-dependent effect” in [26]; “Dose-dependent effect” in [27]; “Dose-dependent effect” in assay [28]; “Dose-dependent effect” in assay [29]; 88% in assay [12]; 89% in assay [13]. For the same compound, the inhibition in [14] came to 78%; in [25], 74%; in assay [15] it was 69%. Besides, the 50% inhibitory concentration (IC50) is 1.8 µM with HeLa [17], 1 µM in the assay on HeLa [20] and over 10 µM with HeLa [22]. Moreover, the EC50 was 1.6 µM in the assay on HeLa [18], 1.4 µM in the assay on HeLa [19], over 10 µM in the assay on HeLa [21] and 6.3 µM in assay [23].

As for `CCCCCc1c2c(c(C)c3c1Oc1cc(OC)ccc1O3)C(=O)OC2`, the inhibition in assay [5] is -3.9%; in assay [8], 26%; in assay [12] it was 23%; in assay [13] it was 34%; in assay [14] it was 12%; in assay [15], -7%. In addition, the IC50 in the assay with HeLa [17] and in the assay with HeLa [22] was over 10 µM throughout. The EC50 (in the assay on HeLa [18]; in the assay with HeLa [19]; in the assay with HeLa [21]; in assay [23]; in assay [24]) was over 10 µM each time.

On to `CCCCCc1c2c(c(C)c3c1Oc1ccccc1O3)C(=O)OC2`, for which the inhibition is 11% in assay [16]; 21% in assay [1]; 40% in assay [2]; 17% in assay [4]; 40% in [5]; -9% in [6]. The inhibition worked out at 12% in assay [7]; 35% in assay [8]; 44% in assay [9]; 28% in assay [10]; 31% in [11].

Take `CCCCCc1c2c(c(C)c3c1C(=O)OC3)Oc1ccc(OC)cc1O2`: the inhibition in assay [16] was 15%; in assay [1], 16%; in assay [2], 19%; in assay [4], 16%; in assay [5], 73%; in assay [7], 7.9%. For the same compound, the inhibition in [8] is 40%; in assay [9] it was 52%; in assay [10] it was 8%; in assay [11], 6%; in assay [12], 60%; in assay [13], 59%. The values for the inhibition in assay [14], in [25] and in [15] were 38%, 22% and 42%, respectively. The IC50 with HeLa [17] and in the assay on HeLa [22] was over 10 µM each time. Also, the EC50 (in the assay on HeLa [18]; in the assay with HeLa [19]; in the assay on HeLa [21]; in assay [23]; in assay [24]) was over 10 µM each time.

As to `CCCCCCc1c2c(c(C)c3c1Oc1ccccc1O3)C(=O)OC2`, the inhibition in assay [16] is 16%; in [1] it was 18%; in [2], 12%; in [3], 29%; in [4] it was 49%; in [6] it was -3%. Also, the inhibition was determined as 7% in [7]; 15% in assay [8]; 26% in assay [9]; 10% in assay [10]; 2% in assay [11]; 11% in [12]. Further, the inhibition was 24% in assay [13], 17% in assay [14], -9% in assay [25] and -7% in [15].

For `CCCCc1c2c(c(C)c3c1Oc1ccccc1O3)C(=O)OC2`, the inhibition in assay [16] came to 12%; in [1], 14%; in assay [2], 14%; in assay [4], 6%; in [5], 41%; in [6], 39%. For the same compound, the inhibition is 7% in [7]; 38% in [8]; 0.4% in assay [10]; 2% in assay [11]; 8% in assay [12]; 15% in assay [13]. In addition, the results for the inhibition in [14] and in assay [15] were 34% and 15%, respectively.
